Columns and labels:
Assay type in all cases: cell-based
[1] = tested on: AKT protein phosphorylated on serine 473 (P-AKT-S473) in PC3 human prostate carcinoma cells; assay: pAKT expression in PC3 human prostate carcinoma cells measured by MSD Multi-spot Biomarker detection (test B); details: MSD sandwich immunoassay, 1 to 2 h incubation, absolute IC50
Procedure: The inhibitory activity of the molecules on AKT phosphorylation is measured either by western blotting using the technique described below, or by the MSD Multi-spot Biomarker detection technique from Meso Scale Discovery also described below.
Study of pAKT Expression in PC3 Human Prostate Carcinoma Cells Measured by the MSD Multi-Spot Biomarker Detection Technique from Meso Scale Discovery (Test B):
This test is based on measuring the expression of the AKT protein phosphorylated on serine 473 (P-AKT-S473), in the PC3 human prostate carcinoma line, by means of the technique based on a sandwich immunoassay using the MSD Multi-spot Biomarker Detection kit from Meso Scale Discovery: phospho-Akt (Ser473) whole cell lysate kit (#K151CAD) or phospho-Akt (Ser473)/Total Akt whole cell lysate kit (#K151OOD). The primary antibody specific for P-AKT-S473 (Kit #K151CAD) is coated onto an electrode in each well of the 96-well plates of the MSD kit: after the addition of a protein lysate to each well, the signal is visualised by adding a secondary detection antibody labelled with an electrochemoluminescent compound. The procedure followed is that described in the kit.
(§1) On day 1, the PC3 cells are seeded into 96-well plates (TPP, #92096) at the concentration of 35 000 cells/well in 200 μl of DMEM medium (DMEM Gibco #11960-044) containing 10% of foetal calf serum (FCS Gibco, #10500-056) and 1% glutamine (L-Glu Gibco #25030-024), and incubated at 37° C., 5% CO2, overnight.
On day 2, the cells are incubated in the presence or absence of the test products for 1 to 2 h at 37° C. in the presence of 5% of CO2. The molecules, diluted in dimethyl sulphoxide (DMSO Sigma #D2650), are added from a 20-times concentrated stock solution, the final percentage of DMSO being 0.1%. The molecules are tested either at a single concentration of less than or equal to 10 μM, or at increasing concentrations in a range that can extend from less than 1 nM to 10 μM.
After this incubation, the cells are lysed for the preparation of the proteins. For this, after the culture medium has been drawn off, 50 μl of complete Tris Lysis Buffer of the MSD kit containing the protease and phosphatase inhibitor solutions are added to the wells and the cells are lysed for 1 h at 4° C. with shaking. At this stage, the plates containing the lysates can be stored at −20° C. or at −80° C.
The wells of the 96-well plates of the MSD kit are saturated for 1 h at ambient temperature with the blocking solution of the MSD kit. Four washes are carried out with 150 μl of Tris Wash Buffer of the MSD kit. The lysates previously prepared are transferred into the 96-well multi-spot plates of the MSD kit and incubated for 1 h at ambient temperature, with shaking. Four washes are carried out with 150 μl of Tris Wash Buffer of the MSD kit. 25 μl of the MSD sulfo-tag detection antibody solution are added to the wells and incubated for 1 h at ambient temperature, with shaking. Four washes are carried out with 150 μl of Tris Wash Buffer of the MSD kit. 150 μl of Read Buffer of the MSD kit are added to the wells and the plates are read immediately on the S12400 instrument from Meso Scale Discovery.
The instrument measures a signal for each well. Wells without cells and containing the lysis buffer serve to determine the background noise that will be subtracted from all the measurements (min). The wells containing cells in the absence of product and in the presence of 0.1% DMSO are considered to be the 100% signal (max). The percentage inhibition is calculated for each concentration of test product according to the following formula: (1-((test−min)/(max−min)))×100.
The activity of the product is translated to IC50, obtained from a dose-response curve of the various concentrations tested and representing the dose giving 50% specific inhibition (absolute IC50). 2 independent experiments make it possible to calculate the mean of the IC50 values.

[2] = tested on: translocation of the LC3 protein in Hela GFP-LC3 cells; assay: Translocation of the LC3 protein in Hela human cells measured by image analysis cytometry (test C, autophagy); details: EBSS + 10 μM hydroxychloroquine, cells with LC3 granulations, absolute IC50
Procedure: Inhibitory activity of the molecules on autophagy is measured by means of the translocation of the LC3 protein from the cytoplasm to the autophagosomes. For this, Hela cells were transfected with a vector encoding the chimeric protein GFP-LC3. A Hela clone stably expressing the GFP-LC3 protein was selected.
Study of the Translocation of the LC3 Protein in Hela Human Cells, Measured by Image Analysis Cytometry (Test C):
as §1, with “Hela GFP-LC3” for “PC3”, “coated with poly-D-lysine (Greiner, #655946)” for “(TPP, #92096)”, “15000” for “35 000”
On day 2, the cells are washed twice with EBSS (Sigma #E3024). The cells are then incubated in EBSS, 10 μM hydroxychloroquine and test products, for 2 hours at 37° C. in the presence of 5% CO2. The molecules are diluted in dimethyl sulphoxide (DMSO Sigma #D2650), the final DMSO percentage being 0.1%. The molecules are tested at increasing concentrations in a range that can extend from 10 nM to 1 μM.
After this incubation, the cells are fixed with 4% paraformaldehyde (Sigma #HT501128 4L) for 10 min. The cells are then washed twice with PBS and the nuclei then stained with 2 μg/ml of Hoechst 33342 (Invitrogen #H3570). The 96-well plates are then read with the iCyte image analysis cytometer (Compucyte).
The activity of the product is translated to IC50, obtained from a dose-response curve of various concentrations tested and representing the dose giving 50% specific inhibition (absolute IC50). 2 independent experiments make it possible to calculate the mean of the IC50 values.

[3] = tested on: P. falciparum (highly chloroquine-resistant strain Fcm29-Cameroon); assay: Antimalarial activity test (radioactive micromethod of Desjardins, tritiated hypoxanthine incorporation); details: Plasmodium falciparum, Erythrocyte, infected human erythrocytes, 48 h
Procedure: Antimalarial Activity Test
The antimalarial activity tests are carried out according to the radioactive micromethod of Desjardins (R. E. Desjardins, C. J. Canfield, J. D. Haynes, J. D. Chulay, Antimicrob. Agents Chemother., 1979, 16, 710-718). The assays are carried out in 96-well microplates (Test Plates Ref. 92696, Techno Plastic Products Ag, Zollstrasse 155, CH-8219 Trasadingen). The P. falciparum strains are cultured in solutions of RPMI 1640 supplemented with 5% of human serum with a haematocrit at 2% and a blood parasite concentration at 1.5%. For each assay, the parasites are incubated with selected concentrations of drugs for 48 h at 37° C. in a humid atmosphere and at 5% CO2. Artemisinin, artesunate and also chloroquine diphosphate are used as reference molecules. The first dilution of the drug is prepared at 1 mg/ml in dimethyl sulphoxide. The range of dilutions of the successive daughter solutions is also prepared in dimethyl sulphoxide. Each daughter dilution is subsequently diluted to 1/50 in RPMI 1640 supplemented with 5% of human serum, all the dilutions being carried out at 37° C. These dilutions are then added to the parasites in culture in the microplates. After addition of the drug, the parasites are in culture in RPMI 1640 containing 5% of human serum and 1% of dimethyl sulphoxide. The parasite growth is measured by incorporation of tritiated hypoxanthine (added 24 h after the beginning of the exposure to the drug) compared with the incorporation in the absence of drug.
The activity of the product is translated to % inhibition of the growth of P. falciparum (highly chloroquine-resistant strain Fcm29-Cameroon) at 1 μM and 0.1 μM in an in vitro test using infected human erythrocytes.

[4] = Homo sapiens, PC-3, P-AKT-S473, PC3 cells

Row | SMILES | IC50 [1, 4] | IC50 ([2]; Homo sapiens, HeLa, 2 h) | inhibition at 1 µM [3] | inhibition at 0.1 µM ([3]; 0.1 μM) | IC50 ([1]; P-AKT-S473, PC3 cells) | IC50 ([2]; 2 hours)
1 | C[C@@]1(C(F)(F)F)Cn2c(nc(N3CCOCC3)cc2=O)N1Cc1c[nH]c2ccccc12 [Example 33, (2S)-1-(1H-indol-3-ylmethyl)-2-methyl-7-(morpholin-4-yl)-2-(trifluoromethyl)-2,3-dihydroimidazo[1,2-a]pyrimidin-5(1H)-one] | 42 nM | 461 nM |  |  |  | 
2 | C[C@@]1(C(F)(F)F)Cn2c(nc(N3CCOCC3)cc2=O)N1Cc1ccc(F)c(Br)c1 [Example 24, (2S)-1-(3-Bromo-4-fluorobenzyl)-2-methyl-7-(morpholin-4-yl)-2-(trifluoromethyl)-2,3-dihydroimidazo[1,2-a]pyrimidin-5(1H)-one] | 13 nM | 314 nM |  |  |  | 
3 | CC(c1cccc(F)c1)N1c2nc(N3CCOCC3)cc(=O)n2C[C@@]1(C)C(F)(F)F (single isomer, unassigned) [Example 22, (2S)-1-[(1R or 1S)-1-(3-Fluorophenyl)ethyl]-2-methyl-7-(morpholin-4-yl)-2-(trifluoromethyl)-2,3-dihydroimidazo[1,2-a]pyrimidin-5(1H)-one] | 59 nM | 872 nM |  |  |  | 
4 | C[C@@]1(C(F)(F)F)Cn2c(nc(N3CCOCC3)cc2=O)N1CCc1ccccc1Cl [Example 27, (2S)-1-[2-(2-Chlorophenyl)ethyl]-2-methyl-7-(morpholin-4-yl)-2-(trifluoromethyl)-2,3-dihydroimidazo[1,2-a]pyrimidin-5(1H)-one] | 24 nM | 51 nM | 53% |  |  | 
5 | C[C@@]1(C(F)(F)F)Cn2c(nc(N3CCOCC3)c(F)c2=O)N1Cc1ccccc1 [Example 19, (2S)-1-Benzyl-6-fluoro-2-methyl-7-(morpholin-4-yl)-2-(trifluoromethyl)-2,3-dihydroimidazo[1,2-a]pyrimidin-5(1H)-one] | 26 nM | 425 nM |  |  |  | 
6 | C[C@@]1(C(F)(F)F)Cn2c(nc(N3CCOCC3)cc2=O)N1Cc1csc2ccc(Cl)cc12 [Example 20, (2S)-1-[(5-Chloro-1-benzothiophen-3-yl)methyl]-2-methyl-7-(morpholin-4-yl)-2-(trifluoromethyl)-2,3-dihydroimidazo[1,2-a]pyrimidin-5(1H)-one] | 18 nM | 703 nM |  |  |  | 
7 | COc1cccc(CCN2c3nc(N4CCOCC4)cc(=O)n3C[C@@]2(C)C(F)(F)F)c1 [Example 26, (2S)-1-[2-(3-Methoxyphenyl)ethyl]-2-methyl-7-(morpholin-4-yl)-2-(trifluoromethyl)-2,3-dihydroimidazo[1,2-a]pyrimidin-5(1H)-one] | 16 nM |  | 75% | 14% |  | 
8 | Cc1ccccc1C(=O)N1c2nc(N3CCOCC3)cc(=O)n2C[C@@]1(C)C(F)(F)F [Example 35, (2S)-2-Methyl-1-[(2-methylphenyl)carbonyl]-7-(morpholin-4-yl)-2-(trifluoromethyl)-2,3-dihydroimidazo[1,2-a]pyrimidin-5(1H)-one] | 32 nM | > 1000 nM |  |  |  | 
9 | C[C@@]1(C(F)(F)F)Cn2c(nc(N3CCOCC3)cc2=O)N1C(=O)c1ccccc1 [Example 21, (2S)-2-Methyl-7-(morpholin-4-yl)-1-(phenylcarbonyl)-2-(trifluoromethyl)-2,3-dihydroimidazo[1,2-a]pyrimidin-5(1H)-one] | 7 nM | > 1000 nM |  |  |  | 
10 | C[C@@]1(C(F)(F)F)Cn2c(nc(N3CCOCC3)cc2=O)N1Cc1cccc(F)c1F [Example 25, (2S)-1-(2,3-Difluorobenzyl)-2-methyl-7-(morpholin-4-yl)-2-(trifluoromethyl)-2,3-dihydroimidazo[1,2-a]pyrimidin-5(1H)-one] | 28 nM | 621 nM |  |  |  | 
11 | CC(c1ccccc1)N1c2nc(N3CCOCC3)cc(=O)n2C[C@@]1(C)C(F)(F)F (single isomer, unassigned) [Example 31, (2S)-2-Methyl-7-(morpholin-4-yl)-1-[(1R or 1S)-1-phenylethyl]-2-(trifluoromethyl)-2,3-dihydroimidazo[1,2-a]pyrimidin-5(1H)-one] |  |  |  |  | 60 nM | 334 nM
12 | CC(c1ccccc1)N1c2nc(N3CCOCC3)cc(=O)n2C[C@@]1(C)C(F)(F)F (single isomer, unassigned) [Example 32, (2S)-2-Methyl-7-(morpholin-4-yl)-1-[(1R or 1S)-1-phenylethyl]-2-(trifluoromethyl)-2,3-dihydroimidazo[1,2-a]pyrimidin-5(1H)-one] |  |  |  |  | 22 nM | > 1000 nM
13 | C[C@@]1(C(F)(F)F)Cn2c(nc(N3CCOCC3)cc2=O)N1Cc1nc2ccccc2o1 [Example 30, (2S)-1-(1,3-Benzoxazol-2-ylmethyl)-2-methyl-7-(morpholin-4-yl)-2-(trifluoromethyl)-2,3-dihydroimidazo[1,2-a]pyrimidin-5(1H)-one] | 89 nM | > 1000 nM |  |  |  | 

Source: patent US8828997B2, “2,3-dihydro-1H-imidazo(1,2-a)pyrimidin-5-one derivatives, preparation thereof, and pharmaceutical use thereof” (Sanofi, priority 2009, dated 2014)
